From ChEMBL document CHEMBL6182861, “Structural modification of heptamethine indocyanine dyes with improved aqueous solubility and stability for photothermal therapy” (Eur J Med Chem, 2025)
The source made the active and inactive calls. The calls are words filed in the database; no cut-off is given here.

Assays:
HepG2 [1] = experiment: Induction of apoptosis in human HepG2 cells at 3.12 uM incubated for 4 hrs followed by exposure to laser irradiation of 808 nm for 2 mins by Annexin V-FITC/PI staining based flow cytometry; assay type: functional, cell-based; details: time 242.0 min
4T1 [2] = experiment: Induction of ROS generation in mouse 4T1 cells at 3.12 uM incubated for 4 hrs followed by exposure to laser irradiation of 808 nm for 2 mins by flow cytometry; assay type: functional, cell-based; details: time 242.0 min
HepG2 [3] = experiment: Induction of ROS generation in human HepG2 cells at 3.12 uM incubated for 4 hrs followed by exposure to laser irradiation of 808 nm for 2 mins by DCFH-DA probe based CLSM; assay type: functional, cell-based; details: time 242.0 min
Mitochondrial membrane [4] = experiment: Inhibition of mitochondrial membrane potential in mouse 4T1 cells at 3.12 uM incubated for 24 hrs by Rh123 probe based CLSM; assay type: cell membranes
[5] = Photosensitizing property of compound assessed as generation of singlet-state oxygen at 10 uM exposed to laser irradiation of 808 nm for 2 mins by SOSG probe based analysis; assay type: functional
4T1 [6] = experiment: Induction of ROS generation in mouse 4T1 cells at 3.12 uM incubated for 4 hrs followed by exposure to laser irradiation of 808 nm for 2 mins by DCFH-DA probe based CLSM; assay type: functional, cell-based; details: time 242.0 min
Mitochondrial membrane [7] = experiment: Inhibition of mitochondrial membrane potential in human HepG2 cells at 3.12 uM incubated for 24 hrs by Rh123 probe based CLSM; assay type: cell membranes
4T1 [8] = experiment: Induction of apoptosis in mouse 4T1 cells at 3.12 uM incubated for 4 hrs followed by exposure to laser irradiation of 808 nm for 2 mins by Annexin V-FITC/PI staining based flow cytometry; assay type: functional, cell-based; details: time 242.0 min
[9] = Photosensitizing property of compound assessed as generation of singlet-state oxygen by ESR spectrometry; assay type: functional
Mitochondrial membrane [10] = experiment: Inhibition of mitochondrial membrane potential in human HepG2 cells at 3.12 uM incubated for 24 hrs by flow cytometry; assay type: cell membranes
[11] = Drug uptake in human HepG2 cells assessed as increase in fluorescence intensity at 3.12 uM incubated for 4 hrs by CLSM; assay type: ADME, cell-based; details: hepg2, 4 h
Mitochondrial membrane [12] = experiment: Inhibition of mitochondrial membrane potential in human HepG2 cells at 3.12 uM preincubated for 4 hrs followed by exposure to laser irradiation of 808 nm for 2 mins and subsequent incubation for 20 hrs by flow cytometry; assay type: cell membranes; details: time 1442.0 min
Mitochondrial membrane [13] = experiment: Inhibition of mitochondrial membrane potential in mouse 4T1 cells at 3.12 uM preincubated for 4 hrs followed by exposure to laser irradiation of 808 nm for 2 mins and subsequent incubation for 20 hrs by Rh123 probe based CLSM; assay type: cell membranes; details: time 1442.0 min
HepG2 [14] = experiment: Photothermal cytotoxicity against human HepG2 cells up to 25 uM preincubated for 4 hrs followed by exposure to laser irradiation of 808 nm for 2 mins and subsequent incubation for 20 hrs by MTT assay; assay type: functional, cell-based; details: time 1442.0 min
Mitochondrial membrane [15] = experiment: Inhibition of mitochondrial membrane potential in human HepG2 cells assessed as green fluorescence at 3.12 uM preincubated for 4 hrs followed by exposure to laser irradiation of 808 nm for 2 mins and subsequent incubation for 20 hrs by JC-1 dye based analysis; assay type: cell membranes; details: time 1442.0 min
[16] = Drug uptake in mouse 4T1 cells assessed as increase in fluorescence intensity at 3.12 uM incubated for 4 hrs by CLSM; assay type: ADME, cell-based; details: 4t1, 4 h
[17] = Photothermal property of compound assessed as increase in photothermal conversion efficiency at 20 uM exposed to laser irradiation of 808 nm for 2 mins; assay type: functional
Mitochondrial membrane [18] = experiment: Inhibition of mitochondrial membrane potential in mouse 4T1 cells at 3.12 uM preincubated for 4 hrs followed by exposure to laser irradiation of 808 nm for 2 mins and subsequent incubation for 20 hrs by flow cytometry; assay type: cell membranes; details: time 1442.0 min
Mitochondrial membrane [19] = experiment: Inhibition of mitochondrial membrane potential in human HepG2 cells at 3.12 uM preincubated for 4 hrs followed by exposure to laser irradiation of 808 nm for 2 mins and subsequent incubation for 20 hrs by Rh123 probe based CLSM; assay type: cell membranes; details: time 1442.0 min
[20] = Drug uptake in mouse 4T1 cells assessed as increase in fluorescence intensity at 3.12 uM incubated for 4 hrs by flow cytometry; assay type: ADME, cell-based; details: 4t1, 4 h
[21] = Drug uptake in human HepG2 cells assessed as increase in fluorescence intensity at 3.12 uM incubated for 4 hrs by flow cytometry; assay type: ADME, cell-based; details: hepg2, 4 h
HepG2 [22] = experiment: Induction of ROS generation in human HepG2 cells at 3.12 uM incubated for 4 hrs followed by exposure to laser irradiation of 808 nm for 2 mins by flow cytometry; assay type: functional, cell-based; details: time 242.0 min
Mitochondrial membrane [23] = experiment: Inhibition of mitochondrial membrane potential in mouse 4T1 cells assessed as green fluorescence at 3.12 uM preincubated for 4 hrs followed by exposure to laser irradiation of 808 nm for 2 mins and subsequent incubation for 20 hrs by JC-1 dye based analysis; assay type: cell membranes; details: time 1442.0 min
[24] = Photothermal stability of compound at 60 degreeC at 20 uM exposed to laser irradiation of 808 nm for 2.5 mins; assay type: physicochemical
Mitochondrial membrane [25] = experiment: Inhibition of mitochondrial membrane potential in mouse 4T1 cells at 3.12 uM incubated for 24 hrs by flow cytometry; assay type: cell membranes
4T1 [26] = experiment: Photothermal cytotoxicity against mouse 4T1 cells up to 25 uM preincubated for 4 hrs followed by exposure to laser irradiation of 808 nm for 2 mins and subsequent incubation for 20 hrs by MTT assay; assay type: functional, cell-based
[27] = Aqueous solubility of compound by absorbance based assay; assay type: physicochemical; details: buffer
4T1 [28] = experiment: Cytotoxicity against mouse 4T1 cells under dark condition at 3.12 uM incubated for 24 hrs by MTT assay; assay type: functional, cell-based
HepG2 [29] = experiment: Cytotoxicity against human HepG2 cells under dark condition at 3.12 uM incubated for 24 hrs by MTT assay; assay type: functional, cell-based

Row | Drug uptake [11] | Drug uptake [16] | Drug uptake [20] | Drug uptake [21] | Stability [24] | Compound | Activity (HepG2 [1]) | Activity (4T1 [2]) | Activity (HepG2 [3]) | inhibition (Mitochondrial membrane [4]) | Activity [5] | Activity (4T1 [6]) | inhibition (Mitochondrial membrane [7]) | Activity (4T1 [8]) | Activity [9] | inhibition (Mitochondrial membrane [10]) | inhibition (Mitochondrial membrane [12]) | inhibition (Mitochondrial membrane [13]) | inhibition (Mitochondrial membrane [18]) | inhibition (Mitochondrial membrane [19]) | Activity (HepG2 [22]) | also measured
1 | Active | Active | Active | Active | Unstable | COCCOCCOCCN1/C(=C/C=C/C=C/C=C/C2=[N+](CCOCCOCCOC)c3ccccc3C2(C)C)C(C)(C)c2ccccc21.[I-] | Active | Active; Exhibited Highest Activity Among Tested Compounds | Active; Exhibited Highest Activity Among Tested Compounds | Active; Certain Degree Of Inhibition Was Observed | Active | Active; Exhibited Highest Activity Among Tested Compounds | Active; Certain Degree Of Inhibition Was Observed | Active | Active | Active; Certain Degree Of Inhibition Was Observed | Active; Significant Inhibition Was Observed | Active; Significant Inhibition Was Observed | Active; Significant Inhibition Was Observed | Active; Significant Inhibition Was Observed | Active; Exhibited Highest Activity Among Tested Compounds | Activity (HepG2 [14]): Active; Compound Was Less Photo-Thermally Effective But Showed Stronger Cell-Killing Ability; inhibition (Mitochondrial membrane [15]): Active; Activity [17]: 5.2%; inhibition (Mitochondrial membrane [23]): Active; inhibition (Mitochondrial membrane [25]): Active; Certain Degree Of Inhibition Was Observed; Activity (4T1 [26]): Active; Compound Was Less Photo-Thermally Effective But Showed Stronger Cell-Killing Ability
2 | Active | Active | Active | Active | Stable | COCCOCCOCCN1/C(=C/C=C/C(C#N)=C/C=C/C2=[N+](CCOCCOCCOC)c3ccccc3C2(C)C)C(C)(C)c2ccccc21.[I-] | Active | Active | Active | Active; Certain Degree Of Inhibition Was Observed | Active | Active | Active; Certain Degree Of Inhibition Was Observed | Active | Active | Active; Certain Degree Of Inhibition Was Observed | Active; Significant Inhibition Was Observed | Active; Significant Inhibition Was Observed | Active; Significant Inhibition Was Observed | Active; Significant Inhibition Was Observed | Active | solubility [27]: soluble; Activity (4T1 [28]): Active; Activity (HepG2 [29]): Active; inhibition (Mitochondrial membrane [15]): Active; Activity [17]: 0.7%; inhibition (Mitochondrial membrane [23]): Active; inhibition (Mitochondrial membrane [25]): Active; Certain Degree Of Inhibition Was Observed
3 | Active | Active | Active | Active | Stable | CN1/C(=C/C=C/C(C#N)=C/C=C/C2=[N+](C)c3ccccc3C2(C)C)C(C)(C)c2ccccc21.[I-] | Active | Active | Active | Active; Certain Degree Of Inhibition Was Observed | Active | Active | Active; Certain Degree Of Inhibition Was Observed | Active | Active | Active; Certain Degree Of Inhibition Was Observed | Active; Significant Inhibition Was Observed | Active; Significant Inhibition Was Observed | Active; Significant Inhibition Was Observed | Active; Significant Inhibition Was Observed | Active | Activity (4T1 [28]): Active; Activity (HepG2 [29]): Active; inhibition (Mitochondrial membrane [15]): Active; inhibition (Mitochondrial membrane [23]): Active; inhibition (Mitochondrial membrane [25]): Active; Certain Degree Of Inhibition Was Observed
4 | Active | Active | Active | Active | Unstable | CN1/C(=C/C=C/C=C/C=C/C2=[N+](C)c3ccccc3C2(C)C)C(C)(C)c2ccccc21.[I-] | Active | Active | Active | Active; Certain Degree Of Inhibition Was Observed | Active | Active | Active; Certain Degree Of Inhibition Was Observed | Active | Active | Active; Certain Degree Of Inhibition Was Observed | Active; Significant Inhibition Was Observed | Active; Significant Inhibition Was Observed | Active; Significant Inhibition Was Observed | Active; Significant Inhibition Was Observed | Active | solubility [27]: Insoluble; Activity (HepG2 [14]): inactive; inhibition (Mitochondrial membrane [25]): Active; Certain Degree Of Inhibition Was Observed; Activity (4T1 [26]): inactive
5 | – | – | – | – | – | CC1(C)C(/C=C/C=C/C=C/C=C2\N(CCCCS(=O)(=O)O)c3ccc4ccccc4c3C2(C)C)=[N+](CCCCS(=O)(=O)[O-])c2ccc3ccccc3c21 | – | – | – | – | inactive | – | – | – | Active | – | – | – | – | – | – | –
